Earlier results on one compound are cited in patent US8304000B2, “Process for preparing water extract of cinnamon” (Beijing Tang-An Nutrition & Healthcare Products Co. Ltd., priority 2010, dated 2012).

Take `O=c1ccc2ccccc2o1` [Coumarin, 1-benzopyran-2-one]: the solubility in alcohol result (alcohol) was “readily soluble”. The solubility in water result (water) is on record as “poorly soluble”.
